Measurements reported in patent publication US7741506B2, “Probe for measuring phytase activity” (Berry & Associates, Inc., priority 2005, dated 2010).

Legend:
wheat 6-phytase = assay: 6-phytase assay with HPLC analysis; assay type: biochemical; settings: 0.27 U enzyme, 1.2 mM substrate, sodium acetate buffer 0.2M, pH 5.2, 50° C.
Method: (§1) Referring now to FIGS. 2 through 5, the aforesaid exemplary probe according to the instant invention (compound 2 of FIG. 1) was employed in assays of 3-phytase and 6-phytase activity. The 3-phytase assay consisted of a solution combining A. ficuum 3-phytase (0.27 U) and the penta-ammonium salt of compound 2 (1.2 mM in glycine-HCl buffer 0.2M, pH 2.6, 3 mL). The 3-phytase assay was carried out at 37° C. The 6-phytase assay consisted of a solution combining wheat 6-phytase (0.27 U) and compound 2 (1.2 mM in sodium acetate buffer, 0.2M, pH 5.2, 3 mL). The 6-phytase assay was carried out at 50° C.
(§2) Control assays were similarly prepared but lacked the phytase enzyme. Assays were carried out in tinted vials, capped with septa and stirred continuously. Aliquot samples (30 μL) were taken and diluted with methanol-water (58:42, 970 μL) for HPLC analysis over the 24-hour time course of the assay.
(§3) Mobile phase (pH 4.0) was prepared by mixing methanol (580 mL), water (420 mL), tetrabutylammonium hydroxide (8 mL), 5N aqueous sulfuric acid (0.5 mL), and 6.4 mM aqueous phytic acid (0.2 mL). HPLC analysis was performed on an analytical HPLC system using a reversed phase column (Hamilton PRP-1, 5 μm, 150×4.6 mm). Compounds were quantified by the external standards method.

A. ficuum 3-phytase = assay: 3-phytase assay with HPLC analysis; assay type: biochemical
Method: as §1, §2, §3

substrate for 6-phytase (sequential dephosphorylation, HPLC) (wheat 6-phytase): serves equally well as a substrate | conversion of compound 2 to compound 7 (complete dephosphorylation) in the presence of 3-phytase (A. ficuum 3-phytase; after 24 hours of incubation, 0.27 U enzyme, 1.2 mM substrate, glycine-HCl buffer 0.2M, pH 2.6, 37° C., HPLC): completely converted | conversion in the enzyme free control (A. ficuum 3-phytase; control lacking the phytase enzyme, 24 hours, glycine-HCl buffer pH 2.6, 37° C., HPLC): no conversion | amide bond cleavage separating the UV chromophore from the phytic acid core (benzoic acid by HPLC) (A. ficuum 3-phytase; in the assay and in the control): no benzoic acid could be detected
SMILES: O=C(NCCCCCCOC1[C@@H](OP(=O)(O)O)[C@H](OP(=O)(O)O)C(OP(=O)(O)O)[C@H](OP(=O)(O)O)[C@H]1OP(=O)(O)O)c1ccccc1 (stereo partly drawn) [compound 2, 5-O-[6-(benzoylamino)hexyl]-D-myo-inositol-1,2,3,4,6-pentakisphosphate]
rate limiting step of the production of compound 7 from compound 2 (A. ficuum 3-phytase; 3-phytase, accumulation of the triphosphate, no significant diphosphate peak): conversion of triphosphate to diphosphate
